Measurements published in the NIST ThermoML archive (doi:10.1016/j.jct.2018.04.001).

Conditions: Liquid, Vibrating wire viscometry

FC(F)(F)/C=C/Cl [(E)-1-chloro-3,3,3-trifluoroprop-1-ene]
Conditions	viscosity [mPa·s]
243.14 K, 5000 kPa	0.5536
243.15 K, 200 kPa	0.5325
243.15 K, 1000 kPa	0.542
243.15 K, 10000 kPa	0.5859
243.15 K, 20000 kPa	0.6281
243.15 K, 30000 kPa	0.6899
243.15 K, 40000 kPa	0.7324
253.14 K, 20000 kPa	0.5583
253.15 K, 200 kPa	0.4733
253.15 K, 1000 kPa	0.4782
253.15 K, 5000 kPa	0.4887
253.15 K, 10000 kPa	0.5179
253.15 K, 30000 kPa	0.6008
253.15 K, 40000 kPa	0.6521
263.14 K, 200 kPa	0.4168
263.15 K, 1000 kPa	0.4194
263.15 K, 5000 kPa	0.433
263.15 K, 10000 kPa	0.455
263.15 K, 20000 kPa	0.4998
263.15 K, 30000 kPa	0.539
263.16 K, 40000 kPa	0.5767
273.14 K, 30000 kPa	0.4792
273.15 K, 200 kPa	0.3733
273.15 K, 1000 kPa	0.3741
273.15 K, 5000 kPa	0.3892
273.15 K, 10000 kPa	0.4091
273.15 K, 20000 kPa	0.4448
273.15 K, 40000 kPa	0.5197
283.14 K, 200 kPa	0.3347
283.14 K, 10000 kPa	0.3688
283.15 K, 1000 kPa	0.3363
283.15 K, 5000 kPa	0.351
283.15 K, 20000 kPa	0.4033
283.15 K, 30000 kPa	0.4368
283.15 K, 40000 kPa	0.4708
293.14 K, 20000 kPa	0.3656
293.14 K, 40000 kPa	0.428
293.15 K, 200 kPa	0.3004
293.15 K, 1000 kPa	0.3033
293.15 K, 5000 kPa	0.316
293.15 K, 10000 kPa	0.3332
293.15 K, 30000 kPa	0.3971
303.15 K, 200 kPa	0.2719
303.15 K, 1000 kPa	0.2743
303.15 K, 5000 kPa	0.2874
303.15 K, 10000 kPa	0.3033
303.15 K, 20000 kPa	0.3337
303.15 K, 30000 kPa	0.3635
303.16 K, 40000 kPa	0.393
313.15 K, 300 kPa	0.2464
313.15 K, 10000 kPa	0.2767
313.15 K, 20000 kPa	0.3058
313.15 K, 30000 kPa	0.3337
313.15 K, 40000 kPa	0.3611
313.16 K, 1000 kPa	0.2489
313.16 K, 5000 kPa	0.2611
323.14 K, 40000 kPa	0.3345
323.15 K, 400 kPa	0.2243
323.15 K, 1000 kPa	0.2267
323.15 K, 5000 kPa	0.2393
323.15 K, 10000 kPa	0.254
323.15 K, 20000 kPa	0.2819
323.15 K, 30000 kPa	0.3084
333.15 K, 500 kPa	0.2047
333.15 K, 1000 kPa	0.2069
333.15 K, 5000 kPa	0.2192
333.15 K, 10000 kPa	0.2344
333.15 K, 20000 kPa	0.262
333.15 K, 30000 kPa	0.2888
333.15 K, 40000 kPa	0.3147
343.14 K, 30000 kPa	0.2702
343.14 K, 40000 kPa	0.2946
343.15 K, 600 kPa	0.1887
343.15 K, 1000 kPa	0.1903
343.15 K, 5000 kPa	0.2029
343.15 K, 10000 kPa	0.2179
343.15 K, 20000 kPa	0.245
353.14 K, 10000 kPa	0.1999
353.14 K, 30000 kPa	0.2503
353.15 K, 5000 kPa	0.1846
353.15 K, 20000 kPa	0.2277
353.15 K, 40000 kPa	0.2733
363.15 K, 5010 kPa	0.1701
363.15 K, 10000 kPa	0.1845
363.15 K, 20000 kPa	0.2107
363.15 K, 40000 kPa	0.257
363.16 K, 30000 kPa	0.2345
373.14 K, 40000 kPa	0.2449
373.15 K, 5000 kPa	0.1581
373.15 K, 10000 kPa	0.1734
373.15 K, 20000 kPa	0.1996
373.15 K, 30000 kPa	0.2229
